# According to patent US20070243144A1, “External Preparation” (TOYO SHINYAKU CO., LTD, priority 2004, published 2007):
# System: HFSKF-II cells (human skin fibroblast)
# Assay: Ability to suppress the generation of active oxygen caused by ultraviolet radiation
# Assay type: cell-based
# Details: 100 μg/mL in medium with 0.03 wt % hydrogen peroxide; UV A 365 nm 4.4 J/cm^2; DCFH-DA fluorescence; six wells
# Description: HFSKF-II cells (human skin fibroblast; obtained from RIKEN) were seeded in a 96-well plate at a concentration of 2×10^5 cells/well, and using 0.1 mL of standard medium (Ham's F-12 medium containing 15% of fetal calf serum; manufactured by Sigma-Aldrich), these were incubated for 24 hours at 37° C. in a 5% CO2 atmosphere. Next, the plate was washed three times with PBS by the method of Hong Wang et al. (Free Radic. Biol. Med., 1999). Then the medium was replaced with a standard medium containing 100 μM of DCFH-DA (2′,7′-dichlorofluorescein diacetate; manufactured by Sigma-Aldrich) and this was incubated for 10 minutes at 37° C. in a 5% CO2 atmosphere. Next, the plate was washed three times with PBS. […] UV A is a UV radiation that readily passes through skin, and is known to promote skin aging.
# Next, the fluorescence F of the DCFH-DA that is emitted due to the presence of active oxygen was measured with a multispectrometer (Varioscan; excitation wavelength: 485±10 nm, detection wavelength: 530±10 nm; Thermo Electron Corporation), and the suppression rate of the active oxygen generation due to UV radiation when the pueraria flower extract was employed was calculated from the following formula. […] Fsample: The fluorescence measured after the medium was replaced with a standard medium that contains pueraria flower extract and UV A was irradiated. […]
structure (smiles),measurement,value
"COC1=C(OC)C(=O)C(C/C=C(\C)CC/C=C(\C)CC/C=C(\C)CC/C=C(\C)CC/C=C(\C)CC/C=C(\C)CC/C=C(\C)CC/C=C(\C)CC/C=C(\C)CCC=C(C)C)=C(C)C1=O [Coenzyme Q10, coenzyme Q10]",Suppression rate of the active oxygen generation (%),30.6 ± 7.7%
